Measured values as given in paper PMC8322648, “Brevibacillin 2V Exerts Its Bactericidal Activity via Binding to Lipid II and Permeabilizing Cellular Membranes” (Frontiers in Microbiology, 2021).

Tests used:
[1] = 31P solid-state NMR of Lipid II in liposomes; type: binding; conditions: combined ssNMR, CD and ITC assays
Description: Multi-lamellar vesicles of DOPC doped with 2 mol % Lys-Lipid II in buffer (20 mm HEPES, 100 mm NaCl, and pH = 8) were collected by centrifugation (60,000 × g) and loaded into 3.2 mm ssNMR rotors. For 3.2 mm rotors, we used 200 nmol of antibiotic with 100 nmol of Lipid II. The 1D ^31P ssNMR experiments were performed at 500 MHz (^1H frequency) magnetic field using 10 kHz magic angle spinning (MAS) at 270 K sample temperature.

[2] = test system: membrane of Gram-positive bacteria; conditions: ref Yang et al., 2017; cited from earlier work
Excerpt: A vast number of bacterial non-ribosomally produced peptides (NRPs) have shown strong antimicrobial activity against pathogenic bacteria ([Cochrane et al., 2014]; [Cociancich et al., 2015]; [Hamamoto et al., 2015]; [Ling et al., 2015]; [Süssmuth and Mainz, 2017]). Lipo-tridecapeptides, a class of NRPs, show strong antimicrobial activity against Gram-positive pathogens, including antibiotic-resistant Staphylococcus aureus and Enterococcus spp. ([Barsby et al., 2001], [2006]; [Yang et al., 2016]; [Wu et al., 2019]; [Zhao et al., 2021]). However, many of these lipo-tridecapeptides have shown high ...

Brevibacillin 2V
Lipid II binding site [1]: binds to the GlcNAc-MurNAc moiety and/or the pentapeptide of Lipid II

Brevibacillin
membrane permeabilization [2]: can permeabilize the membrane of Gram-positive bacteria
